Tested on: Obese Fa/fa Zucker rats
Experiment: Effect on food intake (food consumption) in obese Zucker rats, five days of oral treatment
Type: in vivo, rat
Conditions: daily for 5 days
Experimental: The synergistic effect of the combination of sibutramine and of a CB1 receptor antagonist on food intake was determined according to the following protocol:
Obese Fa/fa Zucker rats aged 7 weeks and originating from Iffa-Credo, France, were used in this study. The rats are housed in individual cages and weighed every day between 8 and 10 o'clock in the morning. The amount of food is also weighed each morning at the same time. This food (M20, Pietrement, France) is changed every day and the rats have free access thereto for 24 hours. All the rats are treated for a week with the vehicle (miglyol 812N and 0.5% methylcellulose/0.2% polysorbate 80) in two consecutive administrations. The rats are treated from the 8th day with the vehicle, the CB1 receptor antagonist (1-[bis(4-chlorophenyl)methyl]-3-[(3,5-difluorophenyl)-(methylsulfonyl)methylene]azetidine) or sibutramine by the oral route (see table below).
The sibutramine is dissolved in a 0.5% methylcellulose/0.2% polysorbate 80 solution and administered at a dose of 3 mg/kg; the CB1 receptor antagonist is dissolved in miglyol 812N (Hüls, Germany) at a dose of 0.6 mg/kg and the two products are administered under a volume of 1 ml/kg. Each group is composed of 12 to 14 animals. […]
The food consumption of each animal is measured every day. The results are expressed as mean amount of food consumed during the 5 days of treatment.

| Compound | Food consumption during the 5 days of treatment (CB1 receptor antagonist 0.6 mg/kg oral in miglyol (then methylcellulose/polysorbate vehicle), vehicles 25.52 ± 0.30, p < 0.01) | Food consumption during the 5 days of treatment (sibutramine 3 mg/kg oral (after miglyol), mean amount of food consumed, vehicles 25.52 ± 0.30, p < 0.05) |
| --- | --- | --- |
| CS(=O)(=O)C(=C1CN(C(c2ccc(Cl)cc2)c2ccc(Cl)cc2)C1)c1cc(F)cc(F)c1 [CB1 receptor antagonist, 1-[bis(4-chlorophenyl)methyl]-3-[(3,5-difluorophenyl)-(methylsulfonyl)methylene]azetidine] | 24.00 ± 0.24 g |  |
| CC(C)CC(N(C)C)C1(c2ccc(Cl)cc2)CCC1 (centres unmarked) [sibutramine, N-{1-[1-(4-chloro-phenyl)cyclobutyl]-3-methylbutyl}-N,N-dimethylamine] |  | 24.60 ± 0.32 g |

From patent US20080058381A1, “COMBINATION OF A CB1 RECEPTOR ANTAGONIST AND OF SIBUTRAMINE, THE PHARMACEUTICAL COMPOSITIONS COMPRISING THEM AND THEIR USE IN THE TREATMENT OF OBESITY” (priority 2000, published 2008)
